Reference: US10045940B2, “Composition comprising an antibiotic and a corticosteroid” (Intervet Inc., priority 2008, dated 2018)

Assay: Storage stability of the formulation of Table 1 (prior formulation without fatty acid)
Assay type: physicochemical
Settings: in the formulation of Table 1
Experimental: Applicants have observed an increase in at least one mometasone degradation product over time when the above formulation is stored at room temperature. […] The formation of the degradation product generally can be minimized by storing the formulation at colder temperatures (e.g., 5° C.). There is, however, a need for a formulation that can remain stable at greater temperatures (e.g., room temperature). This invention provides such a formulation.

## C[C@@H]1CN(c2c(F)c(F)c3c(=O)c(C(=O)O)cn(C4CC4)c3c2F)C[C@H](C)N1 [orbifloxacin]
  Effect of the orbifloxacin in the formulation on formation of the mometasone degradation product: accelerates the formation of the degradation product
